The subject of assay [1] is Staphyloccocus aureus CCM 4223. The experiment in a line: Agar well-diffusion method. Format: cell-based. The settings on record: pure compound 0.57 mM. For orientation: In agar diffusion tests the substance spreads into inoculated agar from a disc or well.
On the set-up of assay [2]: method as in PMID 35448805. The settings on record: pure compounds, compared to ascorbic acid; cited from earlier work.
For assay [3], the system named is A2780. The assay is described as follows: Resazurin screening assay, 2D culture. The class given is cell-based, human. The settings on record: A2780 (Ovarian), 72 h, secondary metabolites and cisplatin. The protocol:
(§1) All experiments were performed in triplicate.

Assay [4] has as its system A549. The experiment in a line: Resazurin screening assay, 2D culture. Format: cell-based, human. The following applies: A549 (Lung), 72 h, secondary metabolites and cisplatin. The protocol: as §1
Assay [5] deals with BJ-5ta. The assay is described as follows: Resazurin screening assay, 2D culture. The class given is cell-based, human. The settings on record: BJ-5ta (Skin Fibroblasts), non-cancerous, 72 h, secondary metabolites and cisplatin. As to the method:
as §1
(In general: The colour change of resazurin is a common sign of viable cells or microbes.)

Assay [6] deals with BLM. The assay is described as follows: Resazurin screening assay, 2D culture. The class given is cell-based, human. The settings on record: BLM (Melanoma), 72 h, secondary metabolites and cisplatin. As to the method:
as §1

Assay [7] relates to HCT116. The assay is described as follows: Resazurin screening assay, 2D culture. The class given is cell-based, human. The following applies: HCT116 (Colon), 72 h, secondary metabolites and cisplatin. The protocol: as §1
The test system of assay [8] is HeLa. The experiment in a line: Resazurin screening assay, 2D culture. The class given is cell-based, human. The settings on record: HeLa (Cervix), 72 h, secondary metabolites and cisplatin. As to the method:
as §1

In assay [9] the test system is MCF-10A. The experiment in a line: Resazurin screening assay, 2D culture. The class given is cell-based, human. The settings on record: MCF-10A (Breast Epithelial), non-cancerous, 72 h, secondary metabolites and cisplatin. The protocol:
as §1

Assay [10] concerns MCF-7. The experiment in a line: Resazurin screening assay, 2D culture. The class given is cell-based, human. The settings on record: MCF-7 (Breast ER+), 72 h, secondary metabolites and cisplatin. As to the method:
as §1

Assay [11] relates to MDA-MB-231. The experiment in a line: Resazurin screening assay, 2D culture. The following applies: MDA-MB-231 (Breast ER−), 72 h, secondary metabolites and cisplatin. Format: cell-based, human. The protocol: as §1
Assay [12] has as its system Jurkat. The assay is described as follows: Resazurin screening assay, 2D suspension culture. Format: cell-based, human. The settings on record: Jurkat (Leukemia), 72 h, secondary metabolites and cisplatin. The protocol:
as §1

Assay [13] concerns COS-7. The assay is described as follows: Resazurin screening assay, 2D culture. The settings on record: COS-7 (Kidney Fibroblasts), non-cancerous, 72 h, secondary metabolites and cisplatin. The class given is cell-based. The protocol:
as §1

Assay [14] concerns A2780. The experiment in a line: Resazurin screening assay, 3D spheroids. The class given is cell-based, human. The following applies: A2780 (Ovarian), 72 h, secondary metabolites and cisplatin. As to the method: as §1
Assay [15] relates to A549. The assay is described as follows: Resazurin screening assay, 3D spheroids. The class given is cell-based, human. The settings on record: A549 (Lung), 72 h, secondary metabolites and cisplatin. The protocol:
as §1

The subject of assay [16] is BJ-5ta. The assay is described as follows: Resazurin screening assay, 3D spheroids. Format: cell-based, human. The settings on record: BJ-5ta (Skin Fibroblasts), non-cancerous, 72 h, secondary metabolites and cisplatin. The protocol: as §1
The subject of assay [17] is BLM. The experiment in a line: Resazurin screening assay, 3D spheroids. The following applies: BLM (Melanoma), 72 h, secondary metabolites and cisplatin. The class given is cell-based, human. The protocol: as §1
Assay [18] relates to HCT116. The assay is described as follows: Resazurin screening assay, 3D spheroids. Format: cell-based, human. The settings on record: HCT116 (Colon), 72 h, secondary metabolites and cisplatin. As to the method:
as §1

The subject of assay [19] is HeLa. The experiment in a line: Resazurin screening assay, 3D spheroids. Format: cell-based, human. The following applies: HeLa (Cervix), 72 h, secondary metabolites and cisplatin. As to the method: as §1
For assay [20], the system named is Jurkat. The assay is described as follows: Resazurin screening assay, 3D spheroids. The following applies: Jurkat (Leukemia), 72 h, secondary metabolites and cisplatin. The class given is cell-based, human. As to the method: as §1
Assay [21] relates to MCF-10A. The experiment in a line: Resazurin screening assay, 3D spheroids. Format: cell-based, human. The following applies: MCF-10A (Breast Epithelial), non-cancerous, 72 h, secondary metabolites and cisplatin. The protocol: as §1
Assay [22] concerns MCF-7. The experiment in a line: Resazurin screening assay, 3D spheroids. Format: cell-based, human. The settings on record: MCF-7 (Breast ER+), 72 h, secondary metabolites and cisplatin. The protocol: as §1
The subject of assay [23] is MDA-MB-231. The assay is described as follows: Resazurin screening assay, 3D spheroids. The following applies: MDA-MB-231 (Breast ER−), 72 h, secondary metabolites and cisplatin. Format: cell-based, human. The protocol: as §1
Assay [24] deals with COS-7. The experiment in a line: Resazurin screening assay, 3D spheroids. Format: cell-based. The settings on record: COS-7 (Kidney Fibroblasts), non-cancerous, 72 h, secondary metabolites and cisplatin. The protocol:
as §1

The nature of assay [25]: DPPH radical scavenging assay. The following applies: 30 min, absorbance 517 nm. The protocol:
The free radical scavenging activity of lichen extracts was measured using 1,1-diphenyl-2-picryl-hydrazil (DPPH). The antioxidant activity via this method is described in several studies and here it is slightly modified. The extracts were dissolved in a small amount of pure DMSO and then filled with distilled water to a concentration of 1 mg/mL. In addition, 10 μL of 5% NaOH solution was added to help dissolve the extracts fully. Stock solutions were subsequently diluted to the desired concentrations. The reaction mixture consisted of 2 mL of DPPH methanolic solution (0.1 mM) and 1 mL of our extracts to reach a final volume of 3 mL. The samples were incubated at laboratory temperature in the dark for 30 min. After the incubation, the absorbance of the samples was measured at 517 nm in a spectrophotometer (multi-detection microplate reader; Synergy HT, BioTek, Winooski, VT, USA). Ascorbic acid was used as positive control. A solution of 5% DMSO (1 mL) in MeOH (2 mL) was used as a blank control. The DPPH radical concentration was calculated by the equation:Free radical scavenging activity (%) = [(A0 − A1)/A)] × 100(2) where A0 was the absorbance of negative control and A1 was the absorbance of the reaction mixture of our samples.
A general note: The DPPH test is a chemical assay of radical scavenging.

As to `CCCCCC(=O)Cc1cc(O)cc2c1C(=O)Oc1cc(O)c(C(=O)O)c(CCCCC)c1O2` [Phy, physodic acid], the “effectiveness among the chosen secondary metabolites (in words)” value in assay [1] is “most effective”. In addition, the “% RIZD S. aureus” value in assay [1] (relative inhibition zone diameter vs gentamicin 50 µg/mL) stood at 118.78%. Moreover, the “free radical scavenging activity in DPPH assay (in words)” value (shortened to “free radical scavenging activity”) in assay [2] is given as “None of the tested compounds showed notable free radical scavenging activity”.
On to `Cc1cc(OC(=O)c2c(C)cc(OC(=O)c3c(C)cc(O)cc3O)cc2O)cc(O)c1C(=O)O` [GA, gyrophoric acid], for which the “free radical scavenging activity” value in assay [2] is on record as “None of the tested compounds showed notable free radical scavenging activity”.
For `COC(=O)c1c(C)cc(OC(=O)c2c(C)cc(O)c(C=O)c2O)c(C)c1O` [A, atranorin], the “free radical scavenging activity” value in assay [2] was “None of the tested compounds showed notable free radical scavenging activity”.
Consider `N.N.[Cl][Pt][Cl]` [CisPt, cisplatin], for which the half-maximal inhibitory concentration (IC50) (as a rule, the concentration that inhibits the measured activity by half) in assay [3] stood at 9.3 µM; in assay [4], 23.5 µM; in [5] it was 37.9 µM; in [6], 29.5 µM; in assay [7], 7.4 µM; in assay [8], 35.4 µM. Also, the IC50 in [9] amounted to 25.9 µM; in assay [10], 29.7 µM; in assay [11] it was 7.1 µM; in assay [12], 6.3 µM; in assay [13], 24.6 µM; in assay [14] it was 134 µM. Moreover, the IC50 in assay [15] was found to be 119 µM; in assay [16] it was 186 µM; in assay [17] it was 89.9 µM; in assay [18] it was 98.4 µM; in assay [19] it was 78 µM; in assay [20], 6.7 µM. Also, the IC50 in [21] is 121 µM; in assay [22], 78.3 µM; in assay [23] it was 75.4 µM; in [24], 154 µM.
`O=C1O[C@H]([C@@H](O)CO)C(O)=C1O` [Ascorbic acid]: the “IC50 by DPPH radical scavenging assay” value in [25] came to 7.7 ± 0.4 µg/mL.
`COc1cc(C)c(C(=O)Oc2cc(C)c(C(=O)O)c(O)c2)c(O)c1` [EA, evernic acid]: the “free radical scavenging activity” value in assay [2] is “None of the tested compounds showed notable free radical scavenging activity”.

These data come from publication PMC9919983, “Screening Evaluation of Antiproliferative, Antimicrobial and Antioxidant Activity of Lichen Extracts and Secondary Metabolites In Vitro” (Plants, 2023).
